Data taken from paper PMC10616469, “Pharmacokinetics and tissue distribution of four major bioactive components of Cynanchum auriculatum extract: a UPLC–MS/MS study in normal and functional dyspepsia rats” (Frontiers in Pharmacology, 2023).
Like-named read-outs stand apart in the source and are kept apart here.

Tests used:
[1] = PK study: plasma pharmacokinetics after oral administration of CA extract in normal and FD rats (UPLC-MS/MS); assay type: in vivo; conditions: Sprague-Dawley, rat, oral CA extract (0.10 g/mL solution, 10 mL/kg); for AUC(0-inf) / AUC(0-t) / CL/F / Cmax / half-life: n = 6; for Tmax: n = 6, read-out: Tmax; for Vd/F: n = 6, read-out: Vz/F
Protocol: For PK experiments, an appropriate amount of the CA extract was weighed to prepare a 0.10 g/mL solution using physiological saline. Briefly, 12 SD rats were randomly assigned to normal and FD groups and were orally administered the prepared CA sample (10 mL/kg body weight). For assessment, 0.3 mL of blood was collected into heparinized tubes via the caudal vein before dosing and at 2, 5, 10, 15, 20, 30, and 45 min, and 1, 2, 4, 8, 12, 24, and 48 h after administration. Blood samples were then immediately centrifuged at 4,500 rpm for 15 min, and the obtained plasma samples were stored at −20°C until determination.
The PK parameters were analyzed using the non–compartment analysis using the WinNonLin 8.2 software (Phoenix, United States). All the data were expressed as mean ± standard deviation (SD). The normal and FD groups were compared using independent samples t–test in SPSS 22.0. Results with p values < 0.05 were considered statistically significant.

[2] = Stability of the four compounds in plasma samples (QC samples); conditions: n = 5
Protocol: In a 1.5 mL EP tube, 100 μL of plasma sample was mixed with 10 µL 1% formic acid–water, 10 μL IS (0.2011 μg/mL), and 400 μL acetonitrile. The mixture was then vortexed for 5 min, followed by sonication for 10 min at 40 kHz and centrifugation at 14,000 rpm for 10 min. The supernatant obtained was transferred to another tube and evaporated to dryness under a nitrogen vacuum at 37°C. The residue obtained was reconstituted with 150 μL of the initial mobile phase, and the centrifugation process was repeated. The supernatant thus obtained was then used for further analysis.
Similarly, QC samples of three concentrations (low, medium, and high) were prepared.
The specificity of the method was evaluated by comparing the retention times of analytes and IS in the blank matrix, blank matrix spiked with the four analytes and IS, and the samples after oral administration of CA extract. Calibration curves were constructed by comparing the ratio of peak areas of the four analytes to that of IS versus the concentration of the four analytes. Calibration curves were fitted via linear weighted (1/X ^ 2 ) least–squares regression. The intra–and inter–day precision and accuracy were estimated by analyzing QC samples at different concentrations on the same day and three consecutive validation days, respectively. The extraction recovery was evaluated by determining the peak area of analytes in QC samples compared with that in extracted matrix samples. The relative standard deviation of the extraction recovery of analytes at each level was retained at ≤20.0%. The following parameters of stability were assessed: short–term stability (24 h at room temperature), processed sample stability (24 h at 4°C), freeze–thaw stability (3 cycles), and auto–sampler stability (6 h at room temperature). QC samples of different concentrations were used for stability analysis.

[3] = Tissue distribution study after oral administration of CA extract in normal and FD rats
Protocol: UPLC–MS/MS analysis was conducted using the ACQUITY UPLC system (Waters Corp., Milford, MA, United States) equipped with a Xevo–TQ mass spectrometer (Waters Corp., Milford, MA, United States) with an electrospray ionization (ESI) interface and triple quadrupole mass analyzer.
The ACQUITY UPLC® BEH C18 column (2.1 mm × 50 mm, 1.7 μm, Waters, United States) was used for separation and was maintained at 40°C. The mobile phase consisted of 0.1% formic acid in water (A) and 0.1% formic acid–acetonitrile (B) for PK study and 0.2% formic acid in water (A) and 0.2% formic acid–acetonitrile (B) for tissue distribution study. The mobile phase was eluted as a gradient, as follows: 0–0.5 min, 10% B; 0.5–3.0 min, 15% B; 3.0–3.2 min, 25% B; 3.2–4.0 min, 30% B; 4.0–4.5 min, 32% B; 4.5–6.0 min, 90% B; and 6.0 min, 10% B. The flow rate was set at 0.35 mL/min and the injection volume was 2 μL for the PK study and 1 μL for the tissue distribution study.
The four active components of CA were quantified using multiple reaction monitoring under negative ion mode. The following m/z transitions were chosen for quantification: baishouwu benzophenone 301.00→283.00, deacylmetaplexigenin 379.15→361.20, qingyangshengenin 499.20→137.00, syringic acid 197.20→181.95, and puerarin (internal standard, IS) 415.10→267.05. The collision energy was 15, 15, 35, 15, and 35 V, respectively ([Sun et al., 2022]). ESI mode was operated under the following conditions: capillary voltage, 1 kV; desolvation gas (N2), 1000 L/h; collision gas (Ar2), 150 L/h; desolvation temperature, 400°C; and source temperature, 120°C.
(§1) Additionally, stomach and small intestinal tissues were diluted three times to obtain a tissue homogenate. Then, 300 μL of this tissue homogenate was mixed with 30 μL 1% formic acid-water, 20 μL IS, and 1.2 mL acetonitrile. The mixture was then vortexed for 5 min, sonicated for 10 min, and then stored at −20°C for 30 min. Subsequently, the mixture was centrifuged at 14,000 rpm for 10 min. The supernatant obtained was then transferred to another tube and evaporated to dryness at 37°C under nitrogen. The dried residue was reconstituted with 200 μL of the 50% methanol–water, and the centrifugation process was repeated. The obtained supernatant was then used for further analysis.
SD rats were randomly divided into normal and FD groups (n = 30 each) and orally administered 10 mL/kg of CA extract solution. The rats were sacrificed at 10, 30 min, 1, 2, and 4 h after administration (6 rats per time point). Subsequently, their heart, liver, spleen, lung, kidney, brain, small intestine, and stomach were removed. The tissue samples were then washed in saline solution and wiped with filter paper. Subsequently, all tissues were stored at −80°C until analysis.

[4] = Stability of the four compounds in tissue homogenate samples (QC samples); conditions: mean ± s, n = 5
Protocol: as §1
The appropriate amount of the reference substance was accurately weighed and dissolved in an appropriate amount of methanol to obtain stock solutions. The concentrations of the resulting stock solution were 0.9996 mg/mL for baishouwu benzophenone, 0.9518 mg/mL for deacylmetaplexigenin, 1.3660 mg/mL for qingyangshengenin, and 0.9898 mg/mL for syringic acid. Accurate volumes of each stock solution were mixed to obtain working solution, which was then serially diluted with methanol to provide standard working solutions. Similarly, QC samples of three concentrations (low, medium, and high) were prepared. All solutions were stored at −20°C for later use.
The following parameters of stability were assessed: short–term stability (24 h at room temperature), processed sample stability (24 h at 4°C), freeze–thaw stability (3 cycles), and auto–sampler stability (6 h at room temperature). QC samples of different concentrations were used for stability analysis.

[5] = high QC (nominal 1666.00 / 3172.53 / 569.17 / 206.21 ng·mL^-1)
[6] = low QC (nominal 52.06 / 49.57 / 8.89 / 1.61 ng·mL^-1)
[7] = medium QC (nominal 208.25 / 396.57 / 71.13 / 25.78 ng·mL^-1)
[8] = Brain homogenate, highest QC (ng·mL^-1): Baishouwu benzophenone 131.10, Syringic acid 320.04, Qingyangshengenin 62.12, Deacylmetaplexigenin 677.19
[9] = Brain homogenate, lowest QC (ng·mL^-1): Baishouwu benzophenone 3.34, Syringic acid 8.18, Qingyangshengenin 1.58, Deacylmetaplexigenin 17.26
[10] = Brain homogenate, middle QC (ng·mL^-1): Baishouwu benzophenone 20.88, Syringic acid 51.14, Qingyangshengenin 9.90, Deacylmetaplexigenin 107.87
[11] = Heart homogenate, highest QC (ng·mL^-1): Baishouwu benzophenone 111.56, Syringic acid 340.93, Qingyangshengenin 350.76, Deacylmetaplexigenin 1522.88
[12] = Heart homogenate, lowest QC (ng·mL^-1): Baishouwu benzophenone 2.66, Syringic acid 8.11, Qingyangshengenin 8.35, Deacylmetaplexigenin 36.24
[13] = Heart homogenate, middle QC (ng·mL^-1): Baishouwu benzophenone 18.96, Syringic acid 57.96, Qingyangshengenin 59.63, Deacylmetaplexigenin 258.89
[14] = Kidney homogenate, highest QC (ng·mL^-1): Baishouwu benzophenone 768.40, Syringic acid 1230.44, Qingyangshengenin 844.98, Deacylmetaplexigenin 2249.71
[15] = Kidney homogenate, lowest QC (ng·mL^-1): Baishouwu benzophenone 9.84, Syringic acid 15.75, Qingyangshengenin 10.82, Deacylmetaplexigenin 28.80
[16] = Kidney homogenate, middle QC (ng·mL^-1): Baishouwu benzophenone 81.96, Syringic acid 131.25, Qingyangshengenin 90.13, Deacylmetaplexigenin 239.97
[17] = Liver homogenate, highest QC (ng·mL^-1): Baishouwu benzophenone 313.75, Syringic acid 268.07, Qingyangshengenin 4484.13, Deacylmetaplexigenin 3093.35
[18] = Liver homogenate, lowest QC (ng·mL^-1): Baishouwu benzophenone 1.77, Syringic acid 22.34, Qingyangshengenin 25.26, Deacylmetaplexigenin 16.38
[19] = Lung homogenate, highest QC (ng·mL^-1): Baishouwu benzophenone 630.29, Syringic acid 662.80, Qingyangshengenin 385.86, Deacylmetaplexigenin 1513.71
[20] = Lung homogenate, lowest QC (ng·mL^-1): Baishouwu benzophenone 17.66, Syringic acid 18.57, Qingyangshengenin 10.81, Deacylmetaplexigenin 42.42
[21] = Lung homogenate, middle QC (ng·mL^-1): Baishouwu benzophenone 105.98, Syringic acid 111.44, Qingyangshengenin 64.88, Deacylmetaplexigenin 254.52
[22] = Small intestine homogenate, highest QC (ng·mL^-1): Baishouwu benzophenone 39.22, Syringic acid 773.28, Qingyangshengenin 1726.39, Deacylmetaplexigenin 1206.41
[23] = Small intestine homogenate, lowest QC (ng·mL^-1): Baishouwu benzophenone 0.46, Syringic acid 9.31, Qingyangshengenin 20.77, Deacylmetaplexigenin 14.52
[24] = Small intestine homogenate, middle QC (ng·mL^-1): Baishouwu benzophenone 4.97, Syringic acid 97.95, Qingyangshengenin 218.68, Deacylmetaplexigenin 152.81
[25] = Spleen homogenate, highest QC (ng·mL^-1): Baishouwu benzophenone 658.88, Syringic acid 752.66, Qingyangshengenin 418.52, Deacylmetaplexigenin 1979.74
[26] = Spleen homogenate, lowest QC (ng·mL^-1): Baishouwu benzophenone 10.98, Syringic acid 12.54, Qingyangshengenin 6.98, Deacylmetaplexigenin 33.00
[27] = Spleen homogenate, middle QC (ng·mL^-1): Baishouwu benzophenone 87.85, Syringic acid 100.35, Qingyangshengenin 55.80, Deacylmetaplexigenin 263.97
[28] = Stomach homogenate, highest QC (ng·mL^-1): Baishouwu benzophenone 47.06, Syringic acid 257.76, Qingyangshengenin 1285.45, Deacylmetaplexigenin 1665.65
[29] = Stomach homogenate, lowest QC (ng·mL^-1): Baishouwu benzophenone 0.63, Syringic acid 3.44, Qingyangshengenin 17.14, Deacylmetaplexigenin 22.21
[30] = Stomach homogenate, middle QC (ng·mL^-1): Baishouwu benzophenone 6.28, Syringic acid 34.37, Qingyangshengenin 171.39, Deacylmetaplexigenin 222.09

CC(=O)c1ccc(O)c(C(=O)c2c(O)ccc(O)c2C)c1O [Baishouwu benzophenone]
AUC(0-inf) ([1]; FD group rats): 11100 ng·h/mL
AUC(0-t) ([1]; FD group rats): 9820 ± 1300 ng·h/mL
CL/F ([1]; FD group rats): 7.5 mL/min/kg
Cmax ([1]; FD group rats): 5220 ± 440 ng/mL
half-life ([1]; FD group rats): 11 ± 1.85 h
Tmax ([1]; FD group rats): 0.31 ± 0.06 h
Vd/F ([1]; FD group rats): 7.08 ± 1.07 L/kg
AUC(0-inf) ([1]; Normal group rats): 13800 ng·h/mL
AUC(0-t) ([1]; Normal group rats): 12800 ng·h/mL
CL/F ([1]; Normal group rats): 6 mL/min/kg
Cmax ([1]; Normal group rats): 6000 ± 592 ng/mL
half-life ([1]; Normal group rats): 9.14 ± 2.41 h
Tmax ([1]; Normal group rats): 0.26 ± 0.03 h
Vd/F ([1]; Normal group rats): 4.67 ± 0.88 L/kg
Measured concentration, 4°C for 24 h [2, 5]: 1594.23 ± 107.31 ng/mL
Measured concentration, Room temperature for 24 h [2, 5]: 1664.66 ± 169.47 ng/mL
Measured concentration, Three freeze-thaw cycles [2, 5]: 1684.19 ± 146.38 ng/mL
Measured concentration, 4°C for 24 h [2, 6]: 55.65 ± 4.01 ng/mL
Measured concentration, Three freeze-thaw cycles [2, 6]: 56.07 ± 5.75 ng/mL
Measured concentration, Room temperature for 24 h ([2]; low QC (nominal 52.06 / 49.57 / 8.89 / 1.61 ng·mL^-1 for baishouwu benzophenone / deacylmetaplexigenin / qingyangshengenin / syringic acid)): 55.67 ± 5.93 ng/mL
Measured concentration, 4°C for 24 h [2, 7]: 221.19 ± 11.60 ng/mL
Measured concentration, Room temperature for 24 h [2, 7]: 222.20 ± 17.55 ng/mL
Measured concentration, Three freeze-thaw cycles [2, 7]: 221.08 ± 17.98 ng/mL
tissue with the highest concentration ([3]; FD group): lungs
crossing of the blood-brain barrier ([3]; distribution found in rat brain): could cross the blood-brain barrier
time after oral administration at which almost completely metabolized in tissues ([3]; rat tissues): 4 h
time of peak in most of organ tissues ([3]; rat tissues): 0.17 to 0.5 h
Auto-sampler for 6 h Measured concentration [4, 8]: 120.63 ± 2.55 ng/mL
Three freeze-thaw cycles Measured concentration [4, 8]: 123.76 ± 3.01 ng/mL
Auto-sampler for 6 h Measured concentration [4, 9]: 3.08 ± 0.01 ng/mL
Three freeze-thaw cycles Measured concentration [4, 9]: 3.02 ± 0.04 ng/mL
Auto-sampler for 6 h Measured concentration [4, 10]: 19.76 ± 0.44 ng/mL
Three freeze-thaw cycles Measured concentration [4, 10]: 20.10 ± 0.34 ng/mL
Auto-sampler for 6 h Measured concentration [4, 11]: 117.44 ± 1.18 ng/mL
Three freeze-thaw cycles Measured concentration [4, 11]: 118.10 ± 1.89 ng/mL
Auto-sampler for 6 h Measured concentration [4, 12]: 2.59 ± 0.05 ng/mL
Three freeze-thaw cycles Measured concentration [4, 12]: 2.47 ± 0.03 ng/mL
Auto-sampler for 6 h Measured concentration [4, 13]: 19.82 ± 0.45 ng/mL
Three freeze-thaw cycles Measured concentration [4, 13]: 19.77 ± 0.41 ng/mL
Auto-sampler for 6 h Measured concentration [4, 14]: 750.99 ± 14.44 ng/mL
Three freeze-thaw cycles Measured concentration [4, 14]: 748.36 ± 12.9 ng/mL
Auto-sampler for 6 h Measured concentration [4, 15]: 9.74 ± 0.44 ng/mL
Three freeze-thaw cycles Measured concentration [4, 15]: 9.58 ± 0.63 ng/mL
Auto-sampler for 6 h Measured concentration [4, 16]: 88.88 ± 5.31 ng/mL
Three freeze-thaw cycles Measured concentration [4, 16]: 87.75 ± 5.24 ng/mL
Auto-sampler for 6 h Measured concentration [4, 17]: 305.22 ± 17.58 ng/mL
Three freeze-thaw cycles Measured concentration [4, 17]: 303.56 ± 16.64 ng/mL
Auto-sampler for 6 h Measured concentration [4, 18]: 1.80 ± 0.19 ng/mL
Three freeze-thaw cycles Measured concentration [4, 18]: 1.86 ± 0.05 ng/mL
Three freeze-thaw cycles Measured concentration ([4]; Liver homogenate, middle QC (ng·mL^-1): Baishouwu benzophenone 27.19, Syringic acid 89.35, Qingyangshengenin 386.62, Deacylmetaplexigenin 268.09): 26.80 ± 1.81 ng/mL
Auto-sampler for 6 h Measured concentration [4, 19]: 717.67 ± 14.53 ng/mL
Three freeze-thaw cycles Measured concentration [4, 19]: 716.31 ± 12.93 ng/mL
Auto-sampler for 6 h Measured concentration [4, 20]: 17.71 ± 1.84 ng/mL
Three freeze-thaw cycles Measured concentration [4, 20]: 17.55 ± 2.16 ng/mL
Auto-sampler for 6 h Measured concentration [4, 21]: 107.37 ± 5.82 ng/mL
Three freeze-thaw cycles Measured concentration [4, 21]: 105.63 ± 6.43 ng/mL
Auto-sampler for 6 h Measured concentration [4, 22]: 38.84 ± 3.48 ng/mL
Three freeze-thaw cycles Measured concentration [4, 22]: 38.30 ± 3.03 ng/mL
Auto-sampler for 6 h Measured concentration [4, 23]: 0.48 ± 0.05 ng/mL
Three freeze-thaw cycles Measured concentration [4, 23]: 0.46 ± 0.04 ng/mL
Auto-sampler for 6 h Measured concentration [4, 24]: 4.71 ± 0.14 ng/mL
Three freeze-thaw cycles Measured concentration [4, 24]: 4.66 ± 0.10 ng/mL
Auto-sampler for 6 h Measured concentration [4, 25]: 684.55 ± 31.57 ng/mL
Three freeze-thaw cycles Measured concentration [4, 25]: 677.57 ± 32.24 ng/mL
Auto-sampler for 6 h Measured concentration [4, 26]: 11.24 ± 0.63 ng/mL
Three freeze-thaw cycles Measured concentration [4, 26]: 11.40 ± 0.76 ng/mL
Auto-sampler for 6 h Measured concentration [4, 27]: 80.95 ± 2.54 ng/mL
Three freeze-thaw cycles Measured concentration [4, 27]: 79.35 ± 1.81 ng/mL
Auto-sampler for 6 h Measured concentration [4, 28]: 43.94 ± 1.72 ng/mL
Three freeze-thaw cycles Measured concentration [4, 28]: 44.41 ± 1.38 ng/mL
Auto-sampler for 6 h Measured concentration [4, 29]: 0.57 ± 0.05 ng/mL
Three freeze-thaw cycles Measured concentration [4, 29]: 0.58 ± 0.07 ng/mL
Auto-sampler for 6 h Measured concentration [4, 30]: 6.13 ± 0.11 ng/mL
Three freeze-thaw cycles Measured concentration [4, 30]: 6.22 ± 0.15 ng/mL
